Consider 20 molecules from patent US10035792B2, “Resorcinol derivative as HSP90 inhibitor” (priority 2015, dated 2018).

The test system of assay [1] is human lung cancer cell line A549. Description: Tumor cell growth inhibition, SRB staining, A549. The format is cell-based. To be noted: A549, 72 h. As to the method:
The growth inhibition assay of tumor cells was detected by sulforhodamine B (SRB) staining method. The specific steps were as follows: inoculating human colon cancer cell line HCT116 and human lung cancer cell line A549 (purchased from American Type Culture Collection, ATCC) at the logarithmic growth phase into a 96-well micro culture plate at an appropriate concentration of 4000 cells/well, 100 μL for each well; after culturing overnight, adding with the compound at different concentrations (100, 10, 1, 0.1, 0.01 μM) to react for 72 h, wherein triplicate wells were set up for each concentration, and solvent control wells with the corresponding concentration and zero wells without cells were also set up. After the completion of the reaction, the culture medium was removed from the adherent cells, the later was added with 10% (w/v) trichloroacetic acid (100 μL/well) at 4° C. to fix for 1 h, and then washed five times with distilled water. After drying at room temperature, 100 μL of SRB solution (4 mg/mL, dissolved in 1% glacial acetic acid) was added into each well, followed by incubation and staining for 15 min at room temperature. The uncombined SRB was removed by washing five times with 1% glacial acetic acid. After drying at room temperature, 100 μL of 10 mM Tris solution was added into each well, and the optical density (OD) at 515 nm was measured by a […] microplate reader. The inhibition rate of the drug to tumor cell growth was calculated according to the following equation: Inhibition rate (%)=(OD of control well-OD of drug well)/OD of control well×100%. The experiment was repeated twice.

Another assay deals with HSP90α (Homo sapiens (Human), UniProt P07900). Briefly: Fluorescence polarization (FP) HSP90-alpha target binding assay. To be noted: fluorescence polarization; read-out: Target binding ability HSP90α FP IC50. An excerpt:
In the present invention, the method of fluorescence polarization (FP) was used to establish the screening platform for HSP90-alpha inhibitors. The principle based on is to calculate fluorescence polarization values in horizontal and vertical directions by detecting molecular weight changes before and after interaction of fluorescent labeled small molecules with other molecules, in use for correlation analysis. If binding equilibria between the fluorescent labeled small molecule and the macromolecule is established, it moves slowly when excited, and the fluorescence polarization values measured will increase. If the fluorescent labeled small molecule binding to the macromolecule is replaced with other ligands, its rotational or inversional speed in free state will become faster, the emitted light would be depolarized with respect to the exciting light plane, and thus the polarized light value measured will decrease, so as to calculate the polarization value of the sample (the unit of polarization value is mP).
The fluorescent labeled small molecule used in the present invention was VER-00051001 (synthesized by reference to the synthetic method described in JMC, 2008, 51, 196-218). The reaction was carried out in a 384-well black plate, using the reaction hydrophobic protein HFB buffer: 100 mM Tris.Cl pH 7.4, 20 mM KCl, 6 mM MgCl2, 5 μg/mL BSA, 25 nM full-length Hsp90U, 10 nM VER-51001. The volume of the reaction system was […], containing 5 nM GM-BODIPY (geldanamycin), 30 nM HSP90 and the test small molecular compound or DMSO (dimethyl sulfoxide), wherein the DMSO content was 2% o. Additional two group wells were established, wherein the wells only added with HFB buffer were used as blank controls, and the wells further added with 5 nM GM-BODIPY were used as negative controls. The reaction was carried out at 4° C. for 12-16 hours. The mP value was measured by Biotek microplate reader at 485 nm of excitation wavelength and 535 nm of emission wavelength. The inhibition rate was calculated using the following equation: (Compound-free mP−Compound mP)/(Compound-free mP−negative control mP)×100%

What is called EC50 is the concentration at which the effect is half-maximal. Read a high EC50 as lower potency in that assay. As usually defined, the IC50 is the concentration at which inhibition is half-maximal. In the case of `CCNC(=O)c1noc(-c2cc(C(C)C)c(O)cc2O)c1-c1cc2c(s1)C(C)(C)NCC2` [Example 18, 5-(2,4-dihydroxyl-5-isopropylphenyl)-4-(7,7-dimethyl-4,5,6,7-tetrahydrothieno[2,3-c]pyridin-2-yl)-N-ethyl-isoxazole-3-carboxamide], in assay [1], the EC50 lay in the range of 20 to 100 nM. Also, the IC50 at HSP90α is less than 20 nM.

In turn, `CCNC(=O)c1noc(-c2cc(C(C)C)c(O)cc2O)c1-c1cnc2c(c1)CN(C)CC2` [Example 19, 5-(2,4-dihydroxyl-5-isopropylphenyl)-N-ethyl-4-(6-methyl-5,6,7,8-tetrahydro-1,6-naphthyridin-3-yl)isoxazole-3-carboxamide] came in with an EC50 in assay [1] greater than 100 nM. For the same molecule, at HSP90α, the IC50 lay in the range of 20 to 100 nM.

Molecule `CC(C)c1cc(-c2onc(C(=O)NCCN(C)C)c2-c2ccc3c(c2)CCN(C)C3)c(O)cc1O` [Example 43, 5-(2,4-dihydroxyl-5-isopropylphenyl)-N-[2-(dimethylamino)ethyl]-4-(2-methyl-1,2,3,4-tetrahydroisoquinolin-6-yl)isoxazole-3-carboxamide] registered an EC50 in assay [1] greater than 100 nM. Besides, on HSP90α, the IC50 lay within 20 to 100 nM.

In assay [1], `CC(C)NC(=O)c1onc(-c2cc(C(C)C)c(O)cc2O)c1-c1ccc2c(c1)CCN(C)C2` [Example 63, 3-(2,4-dihydroxyl-5-isopropylphenyl)-N-isopropyl-4-(2-methyl-1,2,3,4-tetrahydroisoquinolin-6-yl)isoxazole-5-carboxamide] returned an EC50 of less than 20 nM. Moreover, the half-inhibitory concentration (IC50) at HSP90α was less than 20 nM.

Consider `CCNC(=O)c1noc(-c2cc(C(C)C)c(O)cc2O)c1-c1cc2n(c1)CCN(C)C2` [Example 23, 5-(2,4-dihydroxyl-5-isopropylphenyl)-N-ethyl-4-(2-methyl-1,2,3,4-tetrahydropyrrolo[1,2-a]pyrazin-7-yl)isoxazole-3-carboxamide], for which, in assay [1], the EC50 was 20 to 100 nM. On HSP90α, the IC50 is less than 20 nM.

`CNC(=O)c1onc(-c2cc(C(C)C)c(O)cc2O)c1-c1ccc2c(c1)CCN(C)C2` [Example 62, 3-(2,4-dihydroxyl-5-isopropylphenyl)-N-methyl-4-(2-methyl-1,2,3,4-tetrahydroisoquinolin-6-yl)isoxazole-5-carboxamide] yielded an EC50 in assay [1] of less than 20 nM. Also, the IC50 on HSP90α was less than 20 nM.

Turning to `CC(C)c1cc(-c2onc(C(=N)NC#N)c2-c2ccc3c(c2)CCN(C)C3)c(O)cc1O` [Example 21, N-cyano-5-(2,4-dihydroxyl-5-isopropylphenyl)-4-(2-methyl-1,2,3,4-tetrahydroisoquinolin-6-yl)isoxazole-3-carboxamidine], the EC50 in assay [1] was greater than 100 nM. Also, the IC50 on HSP90α is less than 20 nM.

As to `COCCNC(=O)c1noc(-c2cc(C(C)C)c(O)cc2O)c1-c1ccc2c(c1)CCN(C)C2` [Example 41, 5-(2,4-dihydroxyl-5-isopropylphenyl)-N-(2-methoxyethyl)-4-(2-methyl-1,2,3,4-tetrahydroisoquinolin-6-yl)isoxazole-3-carboxamide], in assay [1], the EC50 is 20 to 100 nM. Besides, the IC50 on HSP90α is less than 20 nM.

As to `CC(C)c1cc(-c2noc(C(=O)NCCCO)c2-c2ccc3c(c2)CCN(C)C3)c(O)cc1O` [Example 66, 3-(2,4-dihydroxyl-5-isopropylphenyl)-N-(3-hydroxylpropyl)-4-(2-methyl-1,2,3,4-tetrahydroisoquinolin-6-yl)isoxazole-5-carboxamide], the EC50 in assay [1] is less than 20 nM. Also, the IC50 on HSP90α was less than 20 nM.

On to `CC(C)NC(=O)c1noc(-c2cc(C(C)C)c(O)cc2O)c1-c1ccc2c(c1)CCN(C)C2` [Example 38, 5-(2,4-dihydroxyl-5-isopropylphenyl)-N-isopropyl-4-(2-methyl-1,2,3,4-tetrahydroisoquinolin-6-yl)isoxazole-3-carboxamide], for which the EC50 in assay [1] was in the range of 20 to 100 nM. Besides, the IC50 on HSP90α lay in the range of 20 to 100 nM.

`CCNC(=O)c1onc(-c2cc(C(C)C)c(O)cc2O)c1-c1ccc2c(c1)CCN(CCF)C2` [Example 71]: the concentration giving a half-maximal response (EC50) in assay [1] was less than 20 nM. Further, the IC50 at HSP90α was less than 20 nM.

In the case of `CCNC(=O)c1noc(-c2cc(C(C)C)c(O)cc2O)c1-c1ccc2c(n1)CCN(C)C2` [Example 11, 5-(2,4-dihydroxyl-5-isopropylphenyl)-N-ethyl-4-(6-methyl-5,6,7,8-tetrahydro-1,6-naphthyridin-2-yl)isoxazole-3-carboxamide], the EC50 in assay [1] was less than 20 nM. In addition, on HSP90α, the IC50 is 20 to 100 nM.

Take `CCNC(=O)c1noc(-c2cc(C(C)C)c(O)cc2O)c1-c1ccc2c(c1)CCN(C(C)C)C2` [Example 51, 5-(2,4-dihydroxyl-5-isopropylphenyl)-N-ethyl-4-(2-isopropyl-1,2,3,4-tetrahydroisoquinolin-6-yl)isoxazole-3-carboxamide]: the half-maximal effective concentration (EC50) in assay [1] is 20 to 100 nM. Besides, the concentration for half-maximal inhibition (IC50) at HSP90α was in the range of 20 to 100 nM.

On to `CCNC(=O)c1noc(-c2cc(C(C)C)c(O)cc2O)c1-c1ccc2c(c1)CCCN(C)C2` [Example 26, 5-(2,4-dihydroxyl-5-isopropylphenyl)-N-ethyl-4-(2-methyl-2,3,4,5-tetrahydro-1H-benzo[c]azepin-7-yl)isoxazole-3-carboxamide], for which the EC50 in assay [1] was 20 to 100 nM. In addition, on HSP90α, the IC50 is less than 20 nM.

In the case of `CCNC(=O)c1noc(-c2cc(C(C)C)c(O)cc2O)c1-c1ccc2c(c1)CCN(CCNC(C)=O)C2` [Example 53, 4-(2-(2-acetylaminoethyl)-1,2,3,4-tetrahydroisoquinolin-6-yl)-5-(2,4-dihydroxyl-5-isopropylphenyl)-N-ethylisoxazole-3-carboxamide], the EC50 in assay [1] is greater than 100 nM. In addition, the IC50 on HSP90α lay in the range of 20 to 100 nM.

In assay [1], `CCNC(=O)c1onc(-c2cc(C(C)C)c(O)cc2O)c1-c1ccc2c(c1)CCN(CCO)C2` [Example 69] displayed a concentration giving a half-maximal response (EC50) of less than 20 nM. For the same molecule, the IC50 at HSP90α was less than 20 nM.

The molecule `CCNC(=O)c1onc(-c2cc(C(C)C)c(O)cc2O)c1-c1ccc2c(c1)CCNCC2` [Example 28, 3-(2,4-dihydroxyl-5-isopropylphenyl)-N-ethyl-4-(2,3,4,5-tetrahydro-1H-3-benzazepin-7-yl) isoxazole-5-carboxamide] displayed an EC50 in assay [1] of less than 20 nM. The 50% inhibitory concentration (IC50) at HSP90α was less than 20 nM.

Molecule `CCc1cnc(-c2noc(-c3cc(C(C)C)c(O)cc3O)c2-c2ccc3c(c2)CCN(CCO)C3)[nH]1` [Example 17, 4-(3-(5-ethyl-1H-imidazol-2-yl)-4-(2-(2-hydroxyethyl)-1,2,3,4-tetrahydroisoquinolin-6-yl)isoxazol-5-yl)-6-isopropylbenzene-1,3-diol] returned an EC50 in assay [1] of 20 to 100 nM. Also, the IC50 at HSP90α lay within 20 to 100 nM.

In assay [1], `CCNC(=O)c1noc(-c2cc(C(C)C)c(O)cc2O)c1-c1ccc2c(c1)CCN(CCF)C2` [Example 46, 5-(2,4-dihydroxyl-5-isopropylphenyl)-N-ethyl-4-(2-(2-fluoroethyl)-1,2,3,4-tetrahydroisoquinolin-6-yl)isoxazole-3-carboxamide] displayed an EC50 of less than 20 nM. The IC50 at HSP90α lay in the range of 20 to 100 nM.

For the molecule `CC(C)c1cc(-c2onc(C(=O)NCCF)c2-c2ccc3c(c2)CCN(C)C3)c(O)cc1O` [Example 40, 5-(2,4-dihydroxyl-5-isopropylphenyl)-N-(2-fluoroethyl)-4-(2-methyl-1,2,3,4-tetrahydroisoquinolin-6-yl)isoxazole-3-carboxamide], in assay [1], the EC50 is less than 20 nM. The IC50 at HSP90α was less than 20 nM.
